Results taken from ChEMBL document CHEMBL4477252, “Optimization of microtubule affinity regulating kinase (MARK) inhibitors with improved physical properties” (Bioorg Med Chem Lett, 2016).

biological target: T1, MAP/microtubule affinity-regulating kinase 4 (Mus musculus, UniProt Q8CIP4); test: Inhibition of MARK4 in mouse cortical neurons assessed as inhibition of okadaic acid-induced tau phosphorylation at S262 residue preincubated for 15 mins followed okadaic acid challenge for 1.5 hrs by immunostaining method
T1 sequence (Q8CIP4 whole entry): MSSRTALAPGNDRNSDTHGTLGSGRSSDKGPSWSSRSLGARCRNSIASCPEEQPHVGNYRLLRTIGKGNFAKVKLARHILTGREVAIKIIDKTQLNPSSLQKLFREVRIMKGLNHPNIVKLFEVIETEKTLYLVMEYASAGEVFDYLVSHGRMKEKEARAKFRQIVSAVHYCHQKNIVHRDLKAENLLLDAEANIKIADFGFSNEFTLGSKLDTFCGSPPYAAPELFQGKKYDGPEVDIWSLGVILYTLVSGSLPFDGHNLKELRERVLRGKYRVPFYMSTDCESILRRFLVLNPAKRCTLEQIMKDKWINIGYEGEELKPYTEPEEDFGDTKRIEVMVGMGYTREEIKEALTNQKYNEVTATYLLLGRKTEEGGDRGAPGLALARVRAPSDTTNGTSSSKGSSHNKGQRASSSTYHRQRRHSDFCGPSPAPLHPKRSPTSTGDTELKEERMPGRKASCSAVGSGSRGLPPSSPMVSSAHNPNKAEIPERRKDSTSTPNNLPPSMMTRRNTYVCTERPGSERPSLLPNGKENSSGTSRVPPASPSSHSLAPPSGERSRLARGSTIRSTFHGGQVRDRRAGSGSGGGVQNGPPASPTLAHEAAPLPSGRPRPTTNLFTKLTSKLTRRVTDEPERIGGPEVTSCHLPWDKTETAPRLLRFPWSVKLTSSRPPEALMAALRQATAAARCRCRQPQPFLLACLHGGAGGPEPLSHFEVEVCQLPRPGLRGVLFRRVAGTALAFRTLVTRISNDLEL

Structure (SMILES)	IC50
Cn1cc(-c2cnc3c(-c4csc(C(=O)NCC(F)(F)F)c4)cnn3c2)cn1	60 nM
Cc1sc(C(=O)N[C@@H]2[C@H](N)CCCC2(F)F)cc1-c1cnn2cc(Cl)cnc12	280 nM
O=C(NCC(F)(F)F)c1cc(-c2cnn3cc(-c4ccc(OCCN5CCCCC5)cc4)cnc23)cs1	50 nM
Cn1cc(-c2cnc3c(-c4csc(C(=O)N[C@@H]5CCCC[C@@H]5N)c4)cnn3c2)cn1 (racemic)	2 nM

biological target: T2, Beta-adrenergic receptor kinase 1 (Homo sapiens, UniProt P25098); test: Inhibition of full-length recombinant human His-tagged ADRBK1 expressed in baculovirus expression system by Z'-LYTE assay
T2 sequence (P25098 whole entry): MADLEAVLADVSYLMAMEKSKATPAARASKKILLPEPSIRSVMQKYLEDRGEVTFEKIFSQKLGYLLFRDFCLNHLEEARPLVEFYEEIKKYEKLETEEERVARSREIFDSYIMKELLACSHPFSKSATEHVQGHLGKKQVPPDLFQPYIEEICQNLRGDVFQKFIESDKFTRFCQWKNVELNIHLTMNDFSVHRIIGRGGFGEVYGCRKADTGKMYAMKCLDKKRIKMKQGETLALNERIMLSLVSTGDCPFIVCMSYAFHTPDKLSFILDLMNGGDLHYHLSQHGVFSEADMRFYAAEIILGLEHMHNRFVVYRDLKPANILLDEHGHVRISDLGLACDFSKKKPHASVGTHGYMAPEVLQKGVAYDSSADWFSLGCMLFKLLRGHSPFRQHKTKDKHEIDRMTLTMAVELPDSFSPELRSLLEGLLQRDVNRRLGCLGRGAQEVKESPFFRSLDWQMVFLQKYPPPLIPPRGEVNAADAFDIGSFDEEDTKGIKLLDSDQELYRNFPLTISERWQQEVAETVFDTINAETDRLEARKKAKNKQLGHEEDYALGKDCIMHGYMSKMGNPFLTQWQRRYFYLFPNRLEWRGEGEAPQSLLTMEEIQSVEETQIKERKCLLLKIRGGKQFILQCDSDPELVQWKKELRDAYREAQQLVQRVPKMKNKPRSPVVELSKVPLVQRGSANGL

Structure (SMILES)	IC50
Cn1cc(-c2cnc3c(-c4csc(C(=O)NCC(F)(F)F)c4)cnn3c2)cn1	23000 nM
Cc1sc(C(=O)N[C@@H]2[C@H](N)CCCC2(F)F)cc1-c1cnn2cc(Cl)cnc12	11000 nM
O=C(NCC(F)(F)F)c1cc(-c2cnn3cc(-c4ccc(OCCN5CCCCC5)cc4)cnc23)cs1	610 nM
Cn1cc(-c2cnc3c(-c4csc(C(=O)N[C@@H]5CCCC[C@@H]5N)c4)cnn3c2)cn1 (racemic)	160 nM

biological target: T3, Activin receptor type-1B (Homo sapiens, UniProt P36896); test: Inhibition of recombinant human GST-tagged ALK4 catalytic domain expressed in baculovirus expression system by Z'-LYTE assay
T3 sequence (P36896 whole entry): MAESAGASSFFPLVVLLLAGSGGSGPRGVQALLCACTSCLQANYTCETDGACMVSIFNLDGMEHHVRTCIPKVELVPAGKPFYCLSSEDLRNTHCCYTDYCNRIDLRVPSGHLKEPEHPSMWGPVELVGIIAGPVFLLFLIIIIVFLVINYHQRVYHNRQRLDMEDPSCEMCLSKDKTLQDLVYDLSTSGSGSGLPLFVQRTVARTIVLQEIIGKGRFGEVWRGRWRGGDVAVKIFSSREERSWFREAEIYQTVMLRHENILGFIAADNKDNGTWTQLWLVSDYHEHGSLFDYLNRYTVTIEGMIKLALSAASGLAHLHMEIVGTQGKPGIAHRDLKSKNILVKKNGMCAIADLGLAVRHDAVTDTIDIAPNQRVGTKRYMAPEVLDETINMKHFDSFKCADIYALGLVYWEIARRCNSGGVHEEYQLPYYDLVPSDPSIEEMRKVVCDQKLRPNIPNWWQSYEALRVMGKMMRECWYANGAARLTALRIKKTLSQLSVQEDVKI

Structure (SMILES)	IC50
Cn1cc(-c2cnc3c(-c4csc(C(=O)NCC(F)(F)F)c4)cnn3c2)cn1	170 nM
Cc1sc(C(=O)N[C@@H]2[C@H](N)CCCC2(F)F)cc1-c1cnn2cc(Cl)cnc12	> 100000 nM
O=C(NCC(F)(F)F)c1cc(-c2cnn3cc(-c4ccc(OCCN5CCCCC5)cc4)cnc23)cs1	200 nM
Cn1cc(-c2cnc3c(-c4csc(C(=O)N[C@@H]5CCCC[C@@H]5N)c4)cnn3c2)cn1 (racemic)	730 nM

biological target: Dual specificity protein kinase CLK2 (Homo sapiens, UniProt P49760); test: Inhibition of recombinant human GST-tagged CLK2 catalytic domain expressed in baculovirus expression system by Z'-LYTE assay
Sequence (P49760 whole entry, the tested form may be a part): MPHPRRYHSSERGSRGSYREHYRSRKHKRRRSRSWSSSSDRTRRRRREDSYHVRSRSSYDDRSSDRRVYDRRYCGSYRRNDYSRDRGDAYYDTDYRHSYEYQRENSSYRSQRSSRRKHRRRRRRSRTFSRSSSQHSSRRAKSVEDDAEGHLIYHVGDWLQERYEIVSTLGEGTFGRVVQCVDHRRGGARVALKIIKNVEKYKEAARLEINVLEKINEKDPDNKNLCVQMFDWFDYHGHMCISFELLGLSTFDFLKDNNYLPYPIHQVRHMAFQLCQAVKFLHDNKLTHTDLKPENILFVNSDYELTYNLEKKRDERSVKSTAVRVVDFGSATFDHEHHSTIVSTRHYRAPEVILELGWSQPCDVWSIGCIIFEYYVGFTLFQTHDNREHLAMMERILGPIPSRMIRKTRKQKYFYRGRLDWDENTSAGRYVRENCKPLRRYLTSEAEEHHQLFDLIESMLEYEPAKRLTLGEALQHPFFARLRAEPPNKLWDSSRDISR

Structure (SMILES)	IC50
Cn1cc(-c2cnc3c(-c4csc(C(=O)NCC(F)(F)F)c4)cnn3c2)cn1	< 10 nM
Cc1sc(C(=O)N[C@@H]2[C@H](N)CCCC2(F)F)cc1-c1cnn2cc(Cl)cnc12	110 nM
O=C(NCC(F)(F)F)c1cc(-c2cnn3cc(-c4ccc(OCCN5CCCCC5)cc4)cnc23)cs1	< 10 nM
Cn1cc(-c2cnc3c(-c4csc(C(=O)N[C@@H]5CCCC[C@@H]5N)c4)cnn3c2)cn1 (racemic)	14 nM

biological target: G protein-coupled receptor kinase 4 (Homo sapiens, UniProt P32298); test: Inhibition of full-length recombinant human GST-tagged GRK4 expressed in baculovirus expression system by Z'-LYTE assay
Sequence (P32298 whole entry): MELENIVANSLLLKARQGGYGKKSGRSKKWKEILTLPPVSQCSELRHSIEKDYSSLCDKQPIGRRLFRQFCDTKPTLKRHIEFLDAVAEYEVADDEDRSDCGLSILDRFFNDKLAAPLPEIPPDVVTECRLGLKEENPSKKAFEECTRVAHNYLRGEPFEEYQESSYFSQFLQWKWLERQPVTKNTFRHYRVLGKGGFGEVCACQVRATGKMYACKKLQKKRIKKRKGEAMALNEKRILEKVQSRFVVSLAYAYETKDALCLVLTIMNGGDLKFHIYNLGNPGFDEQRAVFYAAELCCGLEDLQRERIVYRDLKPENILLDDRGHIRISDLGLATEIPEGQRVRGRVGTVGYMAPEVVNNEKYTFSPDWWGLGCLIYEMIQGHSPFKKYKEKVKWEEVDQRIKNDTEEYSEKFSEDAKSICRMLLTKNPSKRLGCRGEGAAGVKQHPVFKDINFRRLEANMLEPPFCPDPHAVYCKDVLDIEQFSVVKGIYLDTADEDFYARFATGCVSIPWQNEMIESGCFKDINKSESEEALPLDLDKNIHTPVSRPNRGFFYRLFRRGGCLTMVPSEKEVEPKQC

Structure (SMILES)	IC50
Cn1cc(-c2cnc3c(-c4csc(C(=O)NCC(F)(F)F)c4)cnn3c2)cn1	19000 nM
Cc1sc(C(=O)N[C@@H]2[C@H](N)CCCC2(F)F)cc1-c1cnn2cc(Cl)cnc12	670 nM
O=C(NCC(F)(F)F)c1cc(-c2cnn3cc(-c4ccc(OCCN5CCCCC5)cc4)cnc23)cs1	5300 nM
Cn1cc(-c2cnc3c(-c4csc(C(=O)N[C@@H]5CCCC[C@@H]5N)c4)cnn3c2)cn1 (racemic)	260 nM

biological target: Mitogen-activated protein kinase 1 (Homo sapiens, UniProt P28482); test: Inhibition of full-length recombinant human GST-tagged MAPK1 expressed in Escherichia coli by Z'-LYTE assay
Sequence (P28482 whole entry): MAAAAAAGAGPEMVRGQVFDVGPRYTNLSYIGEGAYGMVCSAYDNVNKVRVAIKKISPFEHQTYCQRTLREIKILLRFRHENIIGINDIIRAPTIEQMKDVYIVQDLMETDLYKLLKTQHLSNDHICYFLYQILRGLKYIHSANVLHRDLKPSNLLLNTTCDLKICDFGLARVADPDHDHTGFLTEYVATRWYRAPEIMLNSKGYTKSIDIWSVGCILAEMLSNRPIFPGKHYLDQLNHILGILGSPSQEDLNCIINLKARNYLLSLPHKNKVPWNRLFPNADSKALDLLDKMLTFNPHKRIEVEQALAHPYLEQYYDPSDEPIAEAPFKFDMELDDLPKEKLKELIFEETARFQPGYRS

Structure (SMILES)	IC50
Cn1cc(-c2cnc3c(-c4csc(C(=O)NCC(F)(F)F)c4)cnn3c2)cn1	18000 nM
Cc1sc(C(=O)N[C@@H]2[C@H](N)CCCC2(F)F)cc1-c1cnn2cc(Cl)cnc12	1200 nM
O=C(NCC(F)(F)F)c1cc(-c2cnn3cc(-c4ccc(OCCN5CCCCC5)cc4)cnc23)cs1	12000 nM
Cn1cc(-c2cnc3c(-c4csc(C(=O)N[C@@H]5CCCC[C@@H]5N)c4)cnn3c2)cn1 (racemic)	230 nM

biological target: Mitogen-activated protein kinase 8 (Homo sapiens, UniProt P45983); test: Inhibition of full-length recombinant human His-tagged MAPK8 expressed in baculovirus expression system by Z'-LYTE assay
Sequence (P45983 whole entry): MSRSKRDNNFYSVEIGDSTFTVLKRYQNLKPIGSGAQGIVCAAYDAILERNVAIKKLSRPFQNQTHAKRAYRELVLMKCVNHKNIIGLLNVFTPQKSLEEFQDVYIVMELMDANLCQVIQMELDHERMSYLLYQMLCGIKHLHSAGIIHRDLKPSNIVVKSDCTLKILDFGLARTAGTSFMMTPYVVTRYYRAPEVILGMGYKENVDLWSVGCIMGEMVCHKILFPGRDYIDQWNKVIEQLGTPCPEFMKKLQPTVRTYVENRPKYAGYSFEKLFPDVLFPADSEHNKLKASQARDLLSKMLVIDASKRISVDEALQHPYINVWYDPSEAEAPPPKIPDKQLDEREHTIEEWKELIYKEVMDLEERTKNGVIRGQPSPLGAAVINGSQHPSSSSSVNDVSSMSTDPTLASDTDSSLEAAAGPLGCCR

Structure (SMILES)	IC50
Cn1cc(-c2cnc3c(-c4csc(C(=O)NCC(F)(F)F)c4)cnn3c2)cn1	24000 nM
Cc1sc(C(=O)N[C@@H]2[C@H](N)CCCC2(F)F)cc1-c1cnn2cc(Cl)cnc12	15000 nM
O=C(NCC(F)(F)F)c1cc(-c2cnn3cc(-c4ccc(OCCN5CCCCC5)cc4)cnc23)cs1	2800 nM
Cn1cc(-c2cnc3c(-c4csc(C(=O)N[C@@H]5CCCC[C@@H]5N)c4)cnn3c2)cn1 (racemic)	1200 nM

biological target: Serine/threonine-protein kinase Nek6 (Homo sapiens, UniProt Q9HC98); test: Inhibition of full-length recombinant human GST-tagged NEK6 expressed in insect cells by Z'-LYTE assay
Sequence (Q9HC98 whole entry): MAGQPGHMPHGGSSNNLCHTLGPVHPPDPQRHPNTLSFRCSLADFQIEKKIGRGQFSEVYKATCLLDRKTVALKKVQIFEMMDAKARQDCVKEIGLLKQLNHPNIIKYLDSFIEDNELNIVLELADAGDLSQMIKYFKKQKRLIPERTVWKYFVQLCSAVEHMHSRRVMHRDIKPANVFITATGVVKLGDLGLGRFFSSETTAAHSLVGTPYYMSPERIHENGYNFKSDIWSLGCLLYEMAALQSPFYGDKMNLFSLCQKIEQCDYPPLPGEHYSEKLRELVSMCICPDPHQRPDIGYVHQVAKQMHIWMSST

Structure (SMILES)	IC50
Cn1cc(-c2cnc3c(-c4csc(C(=O)NCC(F)(F)F)c4)cnn3c2)cn1	5900 nM
Cc1sc(C(=O)N[C@@H]2[C@H](N)CCCC2(F)F)cc1-c1cnn2cc(Cl)cnc12	17000 nM
O=C(NCC(F)(F)F)c1cc(-c2cnn3cc(-c4ccc(OCCN5CCCCC5)cc4)cnc23)cs1	8800 nM
Cn1cc(-c2cnc3c(-c4csc(C(=O)N[C@@H]5CCCC[C@@H]5N)c4)cnn3c2)cn1 (racemic)	2600 nM

biological target: Ribosomal protein S6 kinase beta-1 (Homo sapiens, UniProt P23443); test: Inhibition of full-length recombinant human GST-tagged RPS6KB1 catalytic domain expressed in baculovirus expression system by Z'-LYTE assay
Sequence (P23443 whole entry, the tested form may be a part): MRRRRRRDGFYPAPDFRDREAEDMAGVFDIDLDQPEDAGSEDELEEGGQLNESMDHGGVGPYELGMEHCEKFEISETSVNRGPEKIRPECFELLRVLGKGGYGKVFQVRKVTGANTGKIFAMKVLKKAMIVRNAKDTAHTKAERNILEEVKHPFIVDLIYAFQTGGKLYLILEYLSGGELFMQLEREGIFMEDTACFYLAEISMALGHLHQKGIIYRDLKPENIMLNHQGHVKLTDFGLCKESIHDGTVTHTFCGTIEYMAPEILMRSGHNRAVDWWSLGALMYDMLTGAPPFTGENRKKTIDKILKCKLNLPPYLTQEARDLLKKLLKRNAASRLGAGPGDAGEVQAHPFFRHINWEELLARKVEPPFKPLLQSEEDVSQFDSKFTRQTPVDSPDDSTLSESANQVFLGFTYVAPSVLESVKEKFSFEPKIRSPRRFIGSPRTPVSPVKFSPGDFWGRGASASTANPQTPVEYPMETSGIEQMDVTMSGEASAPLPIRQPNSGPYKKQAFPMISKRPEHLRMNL

Structure (SMILES)	IC50
Cn1cc(-c2cnc3c(-c4csc(C(=O)NCC(F)(F)F)c4)cnn3c2)cn1	110 nM
Cc1sc(C(=O)N[C@@H]2[C@H](N)CCCC2(F)F)cc1-c1cnn2cc(Cl)cnc12	1500 nM
O=C(NCC(F)(F)F)c1cc(-c2cnn3cc(-c4ccc(OCCN5CCCCC5)cc4)cnc23)cs1	88 nM
Cn1cc(-c2cnc3c(-c4csc(C(=O)N[C@@H]5CCCC[C@@H]5N)c4)cnn3c2)cn1 (racemic)	8 nM

biological target: Non-receptor tyrosine-protein kinase TYK2 (Homo sapiens, UniProt P29597); test: Inhibition of recombinant human N-terminal GST-tagged cytoplasmic TYK2 (833 to 1187 residues) catalytic domain expressed in baculovirus expression system by Z'-LYTE assay
Sequence (P29597 whole entry, the tested form may be a part): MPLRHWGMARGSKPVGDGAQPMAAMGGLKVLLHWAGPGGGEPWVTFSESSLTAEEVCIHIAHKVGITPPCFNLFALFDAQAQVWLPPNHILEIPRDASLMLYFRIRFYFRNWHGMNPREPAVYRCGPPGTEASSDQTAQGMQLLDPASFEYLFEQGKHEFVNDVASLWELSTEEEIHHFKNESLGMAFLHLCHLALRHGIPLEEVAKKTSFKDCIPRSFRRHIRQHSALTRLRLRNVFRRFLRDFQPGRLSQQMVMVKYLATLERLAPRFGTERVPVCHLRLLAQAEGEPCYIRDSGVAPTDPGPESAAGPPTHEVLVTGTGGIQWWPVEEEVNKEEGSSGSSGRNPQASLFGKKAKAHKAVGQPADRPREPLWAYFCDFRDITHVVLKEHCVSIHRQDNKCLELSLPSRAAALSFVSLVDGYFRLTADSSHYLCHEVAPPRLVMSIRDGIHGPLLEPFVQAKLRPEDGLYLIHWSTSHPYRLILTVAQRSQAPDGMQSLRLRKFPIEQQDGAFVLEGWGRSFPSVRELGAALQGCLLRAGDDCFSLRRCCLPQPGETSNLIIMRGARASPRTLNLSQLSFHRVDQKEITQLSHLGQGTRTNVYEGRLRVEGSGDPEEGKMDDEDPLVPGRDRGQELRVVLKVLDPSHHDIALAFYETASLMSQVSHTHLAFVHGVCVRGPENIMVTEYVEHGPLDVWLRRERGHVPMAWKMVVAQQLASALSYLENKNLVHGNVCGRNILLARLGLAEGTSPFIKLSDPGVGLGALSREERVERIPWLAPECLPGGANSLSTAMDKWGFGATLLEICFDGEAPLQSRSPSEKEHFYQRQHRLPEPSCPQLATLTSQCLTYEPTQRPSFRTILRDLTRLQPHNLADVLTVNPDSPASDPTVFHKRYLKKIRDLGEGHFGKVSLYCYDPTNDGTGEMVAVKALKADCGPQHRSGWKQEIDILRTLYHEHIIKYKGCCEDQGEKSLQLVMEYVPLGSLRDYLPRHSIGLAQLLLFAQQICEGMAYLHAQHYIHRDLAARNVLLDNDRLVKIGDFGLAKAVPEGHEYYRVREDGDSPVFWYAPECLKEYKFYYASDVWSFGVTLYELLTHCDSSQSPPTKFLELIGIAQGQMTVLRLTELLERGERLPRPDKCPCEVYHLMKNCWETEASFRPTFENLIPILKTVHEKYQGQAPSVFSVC

Structure (SMILES)	IC50
Cn1cc(-c2cnc3c(-c4csc(C(=O)NCC(F)(F)F)c4)cnn3c2)cn1	92 nM
Cc1sc(C(=O)N[C@@H]2[C@H](N)CCCC2(F)F)cc1-c1cnn2cc(Cl)cnc12	10000 nM
O=C(NCC(F)(F)F)c1cc(-c2cnn3cc(-c4ccc(OCCN5CCCCC5)cc4)cnc23)cs1	75 nM
Cn1cc(-c2cnc3c(-c4csc(C(=O)N[C@@H]5CCCC[C@@H]5N)c4)cnn3c2)cn1 (racemic)	52 nM
